Measurements taken from patent publication US4778811A, “Pharmaceutical compositions of 2-methyl-thiazolo[4,5-c]quinoline” (EGIS Gyogyszergyar, priority 1985, dated 1988).
Each block holds one compound with its values, some of them ahead of it.

Legend:
[1] = Shuttle-box, acquisition of two-way conditioned avoidance reflex; type: in vivo
Procedure: The acquisition of a two-way conditioned avoidance reflex (CAR) was analyzed in the shuttle-box during 5 consecutive days. […] It consists of six boxes, each is separated inside by a barrier with a small gate in the middle. […] They were given 100 trials per day. One trial consisted of 15 s intertrial interval, followed by 15 s CS. The last 5 s of CS overlapped the first s of US. At each learning session the number of CAR and intersignal reactions (IR) was automatically counted and evaluated by multiway analysis of variance (ANOVA).

serotonin (5HT) = experiment: 5HT level and turnover rate of 5HT in rat brain parts; type: in vivo; details: 1 hr after 30 mg/kg s.c.
Procedure: (§1) 11. The turnover rate of dopamine (TRDA), noradrenaline (TRNA) and serotonin (TR5 HT) was measured 1 hr after the injection of 30 mg/kg s.c. 2-methyl-thiazolo[4,5-c]quinoline-ethanesulphonate.

dopamine (DA) = experiment: DA level and turnover rate of DA in rat striatum; type: in vivo; details: 1 hr after 30 mg/kg s.c.
Procedure: as §1

[2] = Screening test: one session conditioning / unconditioned reflex, glass cylinder jump; type: in vivo, rats
Procedure: Was elaborated for studying learning and retention of rats during one session conditioning.
During conditioning rats are trained to jump onto the top of glass cylinder by the electric foot-shock (110 V). The escape reaction (unconditioned reflex, UR) is paired with a bell as conditioned stimulus. The criterion of learning is that conditioned reflex (CR) should be elicited 10 times with 10 s intervals without reinforcement. Retention of CR is taken positive when 24 h following the experiment CR can be elicited. In these experiments animals are distributed into 4 categories on the basis of their learning ability.

[3] = Central nervous depressant effect
benzodiazepine receptor = experiment: Benzodiazepine (BZD) receptor binding, 3H-diazepam displacement, crude cortical membrane preparation
Procedure: For the studies of benzodiazepine /BZD) receptor binding crude cortical membrane preparation was used. […] ^3 H-diazepam was incubated with the membrane for 1 hr at 0° C. in TRIS-citrate buffer, pH 6.8. Specific binding was determined in the presence of 10 μM diazepam. In displacement studies chlordiazepoxide was used as control drug.

malaria = details: cited from earlier work
[4] = Effect on basal metabolism (O2 consumption); type: in vivo, rats; details: urethane 0.6 g/kg i.p., 30° C.
Procedure: The O2 consumption of rats was measured by the method of Issekutz and Issekutz (1952) at constant temperature (30° C.).
O2 consumption of the animals was expressed in ml/h and calculated for body surface, and given finally in ml/h/dm^2. Following injection of urethane and the basal O2 consumption was measured during 30 minutes. This was followed by the injection of the test substance and O2 consumption was registered immediately afterwards. The difference between the highest O2 consumption and the basal value was expressed in percent.
O2 consumption of the animals was calculated according to the following equation: [formula] V=2000 cm^3 P=pressure fall (mmHg)
T=period of measurement (h)
O2 consumption was calculated for body surface and expressed as ml/dm^2 /h. Body surface was calculated on the basis of the "Diack" formula: […]

[5] = Measurement of motility in the shuttle-box; type: in vivo; details: 30-minute observation
Procedure: The apparatus described in the shuttle-box test is used also for investigating the motility of animals. In case of motility experiment all the stimuli are switched off and the animals are allowed to move freely from one compartment of the box to the other. […] Significancy is calculated by Student's test for two means.

SMILES: Cc1nc2cnc3ccccc3c2s1 [B compound, 2-methyl-thiazolo[4,5-c]quinoline-ethanesulfonate]
acquisition of conditioned reflex, number of positive responses (F) ([1]; 10 mg/kg s.c., day 1): 7.5 | number of intersignal reactions (IR) ([1]; 10 mg/kg s.c., day 1): 11.4 | number of negative responses (-f) ([1]; 10 mg/kg s.c., day 1): 76.0 | acquisition of conditioned reflex, number of positive responses (F) ([1]; 10 mg/kg s.c., day 2): 20.2 | number of intersignal reactions (IR) ([1]; 10 mg/kg s.c., day 2): 9.1 | number of negative responses (-f) ([1]; 10 mg/kg s.c., day 2): 40.8 | acquisition of conditioned reflex, number of positive responses (F) ([1]; 10 mg/kg s.c., day 3): 20.2 | number of intersignal reactions (IR) ([1]; 10 mg/kg s.c., day 3): 7.6 | number of negative responses (-f) ([1]; 10 mg/kg s.c., day 3): 29.3 | acquisition of conditioned reflex, number of positive responses (F) ([1]; 10 mg/kg s.c., day 4): 17.8 | number of intersignal reactions (IR) ([1]; 10 mg/kg s.c., day 4): 4.5 | number of negative responses (-f) ([1]; 10 mg/kg s.c., day 4): 29.9 | acquisition of conditioned reflex, number of positive responses (F) ([1]; 10 mg/kg s.c., day 5): 14.5 | number of intersignal reactions (IR) ([1]; 10 mg/kg s.c., day 5): 3.3 | number of negative responses (-f) ([1]; 10 mg/kg s.c., day 5): 37.5 | acquisition of conditioned reflex, number of positive responses (F) ([1]; 25 mg/kg s.c., day 1): 8.7 | number of intersignal reactions (IR) ([1]; 25 mg/kg s.c., day 1): 12.4 | number of negative responses (-f) ([1]; 25 mg/kg s.c., day 1): 54.9 | acquisition of conditioned reflex, number of positive responses (F) ([1]; 25 mg/kg s.c., day 2): 4.2 | number of intersignal reactions (IR) ([1]; 25 mg/kg s.c., day 2): 5.0 | number of negative responses (-f) ([1]; 25 mg/kg s.c., day 2): 67.4 | acquisition of conditioned reflex, number of positive responses (F) ([1]; 25 mg/kg s.c., day 3): 8.9 | number of intersignal reactions (IR) ([1]; 25 mg/kg s.c., day 3): 9.2 | number of negative responses (-f) ([1]; 25 mg/kg s.c., day 3): 74.1 | acquisition of conditioned reflex, number of positive responses (F) ([1]; 25 mg/kg s.c., day 4): 4.0 | number of intersignal reactions (IR) ([1]; 25 mg/kg s.c., day 4): 4.9 | number of negative responses (-f) ([1]; 25 mg/kg s.c., day 4): 80.1 | acquisition of conditioned reflex, number of positive responses (F) ([1]; 25 mg/kg s.c., day 5): 2.5 | number of intersignal reactions (IR) ([1]; 25 mg/kg s.c., day 5): 3.3 | number of negative responses (-f) ([1]; 25 mg/kg s.c., day 5): 85.0 | 5HT level (serotonin (5HT); brainstem): 792.5 ± 36.9 ng/g | TR5HT (turnover rate of 5HT) (serotonin (5HT); brainstem): 237.2 ng/g/h | 5HT level (serotonin (5HT); teldiencephalon): 457.9 ± 24.2 ng/g | TR5HT (turnover rate of 5HT) (serotonin (5HT); teldiencephalon): 53.9 ng/g/h | DA level (dopamine (DA)): 9.14 ± 0.49 µg/g | TRDA (turnover rate of DA) (dopamine (DA)): 1.4 ng/g/h

binding by benzodiazepine receptors (benzodiazepine receptor): not bound by benzodiazepine receptors
SMILES: Cc1nc2cnc3ccccc3c2s1 [Formula I, 2-methyl-thiazolo[4,5-c]quinoline]
spasmolytic effect (Spasmolytic effect): void of any spasmolytic effect | escape of animals in the one session unconditioned reflex test ([2]; even in high doses): enables the escape of animals | inhibition of non-specific activation mechanisms ([2]; rat, in vivo): does not inhibit non-specific activation mechanisms | central nervous depressant effect [3]: significantly stronger central depressant effect than benzodiazepines | displacement of 3H-diazepam specific binding (benzodiazepine receptor; crude cortical membrane, 1 hr, 0° C., TRIS-citrate buffer, pH 6.8): even in high concentration did not alter the specific binding of ^3 H-diazepam | effect against malaria (malaria): completely ineffective against malaria

SMILES: Cc1nc2cnc3ccccc3c2s1.Cl [A compound, 2-methyl-thiazolo[4,5-c]quinoline-hydrochloride]
acquisition of conditioned reflex, number of positive responses (F) ([1]; 5 mg/kg s.c., day 1): 17.8 | number of intersignal reactions (IR) ([1]; 5 mg/kg s.c., day 1): 9.5 | number of negative responses (-f) ([1]; 5 mg/kg s.c., day 1): 14.4 | acquisition of conditioned reflex, number of positive responses (F) ([1]; 5 mg/kg s.c., day 2): 29.6 | number of intersignal reactions (IR) ([1]; 5 mg/kg s.c., day 2): 8.9 | number of negative responses (-f) ([1]; 5 mg/kg s.c., day 2): 23.0 | acquisition of conditioned reflex, number of positive responses (F) ([1]; 5 mg/kg s.c., day 3): 24.3 | number of intersignal reactions (IR) ([1]; 5 mg/kg s.c., day 3): 3.2 | number of negative responses (-f) ([1]; 5 mg/kg s.c., day 3): 24.6 | acquisition of conditioned reflex, number of positive responses (F) ([1]; 5 mg/kg s.c., day 4): 23.0 | number of intersignal reactions (IR) ([1]; 5 mg/kg s.c., day 4): 2.9 | number of negative responses (-f) ([1]; 5 mg/kg s.c., day 4): 25.4 | acquisition of conditioned reflex, number of positive responses (F) ([1]; 5 mg/kg s.c., day 5): 29.4 | number of intersignal reactions (IR) ([1]; 5 mg/kg s.c., day 5): 2.3 | number of negative responses (-f) ([1]; 5 mg/kg s.c., day 5): 27.5 | acquisition of conditioned reflex, number of positive responses (F) ([1]; 10 mg/kg s.c., day 1): 12.0 | number of intersignal reactions (IR) ([1]; 10 mg/kg s.c., day 1): 8.9 | number of negative responses (-f) ([1]; 10 mg/kg s.c., day 1): 70.4 | acquisition of conditioned reflex, number of positive responses (F) ([1]; 10 mg/kg s.c., day 2): 14.7 | number of intersignal reactions (IR) ([1]; 10 mg/kg s.c., day 2): 7.3 | number of negative responses (-f) ([1]; 10 mg/kg s.c., day 2): 55.3 | acquisition of conditioned reflex, number of positive responses (F) ([1]; 10 mg/kg s.c., day 3): 7.2 | number of intersignal reactions (IR) ([1]; 10 mg/kg s.c., day 3): 2.7 | number of negative responses (-f) ([1]; 10 mg/kg s.c., day 3): 58.2 | acquisition of conditioned reflex, number of positive responses (F) ([1]; 10 mg/kg s.c., day 4): 5.5 | number of intersignal reactions (IR) ([1]; 10 mg/kg s.c., day 4): 2.1 | number of negative responses (-f) ([1]; 10 mg/kg s.c., day 4): 66.8 | acquisition of conditioned reflex, number of positive responses (F) ([1]; 10 mg/kg s.c., day 5): 7.3 | number of intersignal reactions (IR) ([1]; 10 mg/kg s.c., day 5): 2.1 | number of negative responses (-f) ([1]; 10 mg/kg s.c., day 5): 68.2 | acquisition of conditioned reflex, number of positive responses (F) ([1]; 25 mg/kg s.c., day 1): 7.0 | number of intersignal reactions (IR) ([1]; 25 mg/kg s.c., day 1): 10.7 | number of negative responses (-f) ([1]; 25 mg/kg s.c., day 1): 83.6 | acquisition of conditioned reflex, number of positive responses (F) ([1]; 25 mg/kg s.c., day 2): 6.6 | number of intersignal reactions (IR) ([1]; 25 mg/kg s.c., day 2): 5.7 | number of negative responses (-f) ([1]; 25 mg/kg s.c., day 2): 85.1 | acquisition of conditioned reflex, number of positive responses (F) ([1]; 25 mg/kg s.c., day 3): 2.6 | number of intersignal reactions (IR) ([1]; 25 mg/kg s.c., day 3): 4.4 | number of negative responses (-f) ([1]; 25 mg/kg s.c., day 3): 94.3 | acquisition of conditioned reflex, number of positive responses (F) ([1]; 25 mg/kg s.c., day 4): 1.6 | number of intersignal reactions (IR) ([1]; 25 mg/kg s.c., day 4): 3.8 | number of negative responses (-f) ([1]; 25 mg/kg s.c., day 4): 93.8 | acquisition of conditioned reflex, number of positive responses (F) ([1]; 25 mg/kg s.c., day 5): 3.1 | number of intersignal reactions (IR) ([1]; 25 mg/kg s.c., day 5): 4.2 | number of negative responses (-f) ([1]; 25 mg/kg s.c., day 5): 95.0 | rate of metabolism / O2 consumption [4]: slightly | motility (spontaneous crossings of the gate) [5]: slight motility decreasing effect
